Results from patent publication US11534443B2, “Quinazoline compounds, preparation method, use, and pharmaceutical composition thereof” (INSTITUTE OF MATERIA MEDICA, CHINESE ACADEMY OF MEDICAL …, priority 2016, dated 2022).

Tests used:
PI3Kα = PI3Kα (Homo sapiens (Human), UniProt P42336); assay: Biochemical evaluation of activity of PI3Kα (Kinase-Glo luminescence kinase assay); settings: 25 μM ATP, 50 μM PIP2, 1 h at room temperature
Experimental: The potency of compounds in the present intention against PI3Kα was assessed by in vitro kinase assay. The kinase activity of PI3Kα was determined by detecting the level of ADP produced in the kinase reaction with luciferase-based luminescence detection.
The Kinase-Glo™ Kinase Assay Kit was purchased from Promega. All assays were performed at room temperature using white OptiPlate™-384 well plate. The PI3Kα kinase was purchased from Invitrogen. The substrate was PIP2 from Invitrogen. The kinase buffer contained 50 mM Hepes (pH 7.5), 3 mM MgCl2, 100 mM NaCl, 1 mM EGTA, 0.03% CHAPS and 2 mM DTT. […] The substrate solution contained 100 μM PIP2 and 50 μM ATP. The test compound was diluted to 10 mM in 100% DMSO and serially diluted three times into ten different concentrations in 100% DMSO. The compound diluted in 100% DMSO was diluted 25-fold in 1×kinase buffer. 2.5 μL of the diluted compound solution and 2.5 μL PI3Kα kinase solution were added to each well of a 384-well plate. The reaction was initiated by addition of 5 μL substrate solution to each well. […] The plate was then covered and the reaction was allowed to proceed for one hour at room temperature, followed by the addition of 10 μL Kinase-Glo™ reagent to each well to stop the reaction.
The percentage of inhibition was calculated as follows: Inhibition %=100−(max−sample RLU)/(max−min)*100
wherein sample RLU was the luminescence reading for a given compound concentration, min was the reading of DMSO control, and max was the reading of the enzyme-free control. The IC50 value was calculated with the XLfit program in Excel.

[1] = tested on: human lung cancer cell NCI-H460; assay: Tumor cell viability by MTT assay; type: cell-based
Experimental: After 24 hours, 100 μL of fresh medium containing different concentrations of test compounds and the corresponding solvent control was added into each well to a final concentration of DMSO less than 0.2%. Six to nine concentration groups were set for each test compound, and three parallel wells were set for each group. The plate was incubated at 5% CO2, 37° C. for 96 hours. 20 μL of freshly prepared PBS solution containing 5 mg/mL MTT was added to each well. The supernatant was discarded after incubation for another 4 hours. 150 μL DMSO was added to each well to dissolve the MTT formazan precipitate. After being mixed by a micro-oscillator, the optical density (OD) was measured at the wavelength of 570 nm, and the tumor cells treated with DMSO were used as a control group.

Chain of PI3Kα (P42336 whole entry): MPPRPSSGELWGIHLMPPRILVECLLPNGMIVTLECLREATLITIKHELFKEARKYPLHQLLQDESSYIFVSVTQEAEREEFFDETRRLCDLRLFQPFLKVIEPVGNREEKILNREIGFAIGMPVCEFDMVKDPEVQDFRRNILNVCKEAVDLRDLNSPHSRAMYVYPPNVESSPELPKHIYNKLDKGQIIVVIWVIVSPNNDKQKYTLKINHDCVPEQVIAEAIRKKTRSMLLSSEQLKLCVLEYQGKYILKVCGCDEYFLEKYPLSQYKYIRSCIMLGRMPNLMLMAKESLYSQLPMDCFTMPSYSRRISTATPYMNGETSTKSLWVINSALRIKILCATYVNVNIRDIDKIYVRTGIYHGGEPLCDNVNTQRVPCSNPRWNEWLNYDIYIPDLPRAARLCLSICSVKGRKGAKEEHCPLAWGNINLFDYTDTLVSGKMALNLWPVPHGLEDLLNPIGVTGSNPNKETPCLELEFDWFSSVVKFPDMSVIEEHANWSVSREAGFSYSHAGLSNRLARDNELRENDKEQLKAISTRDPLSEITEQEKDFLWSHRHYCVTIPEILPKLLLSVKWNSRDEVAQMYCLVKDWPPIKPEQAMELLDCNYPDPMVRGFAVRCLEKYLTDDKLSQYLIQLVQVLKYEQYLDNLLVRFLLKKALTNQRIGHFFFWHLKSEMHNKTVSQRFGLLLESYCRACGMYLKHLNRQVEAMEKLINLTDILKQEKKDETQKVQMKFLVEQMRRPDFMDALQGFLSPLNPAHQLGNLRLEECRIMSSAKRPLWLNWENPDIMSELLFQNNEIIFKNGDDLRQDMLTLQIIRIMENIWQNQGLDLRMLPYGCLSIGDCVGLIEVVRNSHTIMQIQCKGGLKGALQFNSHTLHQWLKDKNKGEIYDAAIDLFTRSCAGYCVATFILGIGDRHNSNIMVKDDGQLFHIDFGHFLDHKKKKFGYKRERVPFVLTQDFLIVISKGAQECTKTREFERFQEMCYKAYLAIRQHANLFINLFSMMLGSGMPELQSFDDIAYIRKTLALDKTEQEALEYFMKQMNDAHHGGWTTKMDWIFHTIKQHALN
Chain of PI3Kα (P27986 whole entry partner): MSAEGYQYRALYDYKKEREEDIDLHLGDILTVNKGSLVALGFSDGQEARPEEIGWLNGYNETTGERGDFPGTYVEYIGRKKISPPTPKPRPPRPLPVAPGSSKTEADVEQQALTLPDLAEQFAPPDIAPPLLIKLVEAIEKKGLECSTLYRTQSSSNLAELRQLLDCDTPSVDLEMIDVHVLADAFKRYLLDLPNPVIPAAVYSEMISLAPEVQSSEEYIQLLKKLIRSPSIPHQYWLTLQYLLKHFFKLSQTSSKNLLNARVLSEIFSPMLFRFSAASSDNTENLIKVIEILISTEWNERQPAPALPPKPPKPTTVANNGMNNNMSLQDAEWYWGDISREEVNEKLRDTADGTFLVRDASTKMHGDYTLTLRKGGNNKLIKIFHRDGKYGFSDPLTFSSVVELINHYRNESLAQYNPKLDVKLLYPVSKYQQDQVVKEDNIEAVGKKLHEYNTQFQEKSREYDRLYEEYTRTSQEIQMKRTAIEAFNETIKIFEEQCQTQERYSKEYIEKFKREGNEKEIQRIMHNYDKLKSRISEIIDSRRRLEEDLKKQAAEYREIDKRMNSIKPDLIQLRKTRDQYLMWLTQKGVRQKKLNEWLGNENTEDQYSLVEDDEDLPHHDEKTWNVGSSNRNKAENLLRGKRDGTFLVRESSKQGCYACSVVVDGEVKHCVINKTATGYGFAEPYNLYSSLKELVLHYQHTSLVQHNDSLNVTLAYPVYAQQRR

Row | SMILES | IC50 (PI3Kα) | IC50 ([1]; Homo sapiens, NCI-H460, 96 h) | IC50 ([1]; 96 hours)
1 | COc1ncc(-c2cc(OC3CCOCC3)c3nc(N)nc(C)c3c2)cc1NS(=O)(=O)c1ccc(F)cc1 [Example 3, N-(5-(2-amino-4-methyl-8-((tetrahydro-2H-pyran-4-yl)oxy)quinazolin-6-yl)-2-methoxypyridin-3-yl)-4-fluorobenzenesulfonamide] |  | 96 nM | 
2 | COc1ncc(-c2cc(OC3CCOCC3)c3nc(N)nc(C)c3c2)cc1NS(C)(=O)=O [Example 5, N-(5-(2-amino-4-methyl-8-((tetrahydro-2H-pyran-4-yl)oxy)quinazolin-6-yl)-2-methoxypyridin-3-yl)methanesulfonamide] | 2.7 nM | 860 nM | 
3 | COc1ncc(-c2cc(OC3CCOCC3)c3nc(N)nc(C)c3c2)cc1NS(=O)(=O)C1CC1 [Example 6, N-(5-(2-amino-4-methyl-8-((tetrahydro-2H-pyran-4-yl)oxy)quinazolin-6-yl)-2-methoxypyridin-3-yl)cyclopropanesulfonamide] | 2.3 nM | 930 nM | 
4 | COc1ncc(-c2cc(O[C@@H]3CCOC3)c3nc(N)nc(C)c3c2)cc1NS(C)(=O)=O [Example 10, (R)—N-(5-(2-amino-4-methyl-8-((tetrahydrofuran-3-yl)oxy)quinazolin-6-yl)-2-methoxypyridin-3-yl)methanesulfonamide] | 3.8 nM | 2200 nM | 
5 | COc1ncc(-c2cc(O[C@H]3CCOC3)c3nc(N)nc(C)c3c2)cc1NS(C)(=O)=O [Example 12, (S)—N-(5-(2-amino-4-methyl-8-((tetrahydrofuran-3-yl)oxy)quinazolin-6-yl)-2-methoxypyridin-3-yl)methanesulfonamide] | 4.5 nM | 2300 nM | 
6 | COc1ncc(-c2cc(OC3CCC3)c3nc(N)nc(C)c3c2)cc1NS(=O)(=O)c1ccc(F)cc1F [Example 24, N-(5-(2-amino-8-cyclobutoxy-4-methylquinazolin-6-yl)-2-methoxypyridin-3-yl)-2,4-difluorobenzenesulfonamide] | 0.8 nM |  | 
7 | CNc1nc(C)c2cc(-c3cnc(OC)c(NS(=O)(=O)c4ccc(F)cc4F)c3)cc(OC3CCCC3)c2n1 [Example 40, N-(5-(8-(cyclopentyloxy)-4-methyl-2-(methylamino)quinazolin-6-yl)-2-methoxypyridin-3-yl)-2,4-difluorobenzenesulfonamide] | 8.5 nM |  | 
8 | CNc1nc(C)c2cc(-c3cnc(OC)c(NS(=O)(=O)c4ccc(F)cc4F)c3)cc(OC3CCC3)c2n1 [Example 41, N-(5-(8-cyclobutoxy-4-methyl-2-(methylamino)quinazolin-6-yl)-2-methoxypyridin-3-yl)-2,4-difluorobenzenesulfonamide] | 5 nM |  | 
9 | COc1ncc(-c2cc(OCCN3CCOCC3)c3ncnc(C)c3c2)cc1NS(=O)(=O)c1ccc(F)cc1F [Example 65, N-(2-methoxy-5-(4-methyl-8-(2-morpholinoethoxy)quinazolin-6-yl)pyridin-3-yl)-2,4-difluorobenzenesulfonamide] |  | 630 nM | 

Now from value to molecule:

Row | IC50 (PI3Kα) | IC50 ([1]; Homo sapiens, NCI-H460, 96 h) | IC50 ([1]; 96 hours) | SMILES
10 | 1.1 nM | 30 nM |  | COc1ncc(-c2cc(O[C@H]3CC[C@H](OC)CC3)c3nc(N)nc(C)c3c2)cc1NS(=O)(=O)c1ccc(F)cc1F (single isomer, unassigned) [Example 18-1, N-(5-(2-amino-8-((4-methoxycyclohexyl)oxy)-4-methylquinazolin-6-yl)-2-methoxypyridin-3-yl)-2,4-difluorobenzenesulfonamide]
11 | 0.8 nM |  | 57 nM | COc1ncc(-c2cc(O[C@H]3CC[C@H](OC)CC3)c3nc(N)nc(C)c3c2)cc1NS(=O)(=O)c1ccc(F)cc1F (single isomer, unassigned) [Example 18-2, N-(5-(2-amino-8-((4-methoxycyclohexyl)oxy)-4-methylquinazolin-6-yl)-2-methoxypyridin-3-yl)-2,4-difluorobenzenesulfonamide]
12 | 0.72 nM | 17 nM |  | COc1ncc(-c2cc(OC3CCOCC3)c3nc(N)nc(C)c3c2)cc1NS(=O)(=O)c1ccc(F)cc1Cl [Example 2, N-(5-(2-amino-4-methyl-8-((tetrahydro-2H-pyran-4-yl)oxy)quinazolin-6-yl)-2-methoxypyridin-3-yl)-2-chloro-4-fluorobenzenesulfonamide]
13 | 0.74 nM |  |  | COc1ncc(-c2cc(OC3CCOCC3)c3nc(N)nc(C)c3c2)cc1NS(=O)(=O)c1ccc(Cl)s1 [Example 4, N-(5-(2-amino-4-methyl-8-((tetrahydro-2H-pyran-4-yl)oxy)quinazolin-6-yl)-2-methoxypyridin-3-yl)-5-chlorothiophene-2-sulfonamide]
14 | 1.1 nM | 2100 nM |  | Cc1ncc(-c2cc(OC3CCOCC3)c3nc(N)nc(C)c3c2)cc1NS(=O)(=O)c1ccc(F)cc1F [Example 7, N-(5-(2-amino-4-methyl-8-((tetrahydro-2H-pyran-4-yl)oxy)quinazolin-6-yl)-2-methylpyridin-3-yl)-2,4-difluorobenzenesulfonamide]
15 | 1 nM | 1200 nM |  | Cc1nc(N)nc2c(OC3CCOCC3)cc(-c3cnc(Cl)c(NS(=O)(=O)c4ccc(F)cc4)c3)cc12 [Example 8, N-(5-(2-amino-4-methyl-8-((tetrahydro-2H-pyran-4-yl)oxy)quinazolin-6-yl)-2-chloropyridin-3-yl)-4-fluorobenzenesulfonamide]
16 | 0.94 nM | 94 nM |  | COc1ncc(-c2cc(O[C@H]3CCOC3)c3nc(N)nc(C)c3c2)cc1NS(=O)(=O)c1ccc(F)cc1F [Example 11, (S)—N-(5-(2-amino-4-methyl-8-((tetrahydrofuran-3-yl)oxy)quinazolin-6-yl)-2-methoxypyridin-3-yl)-2,4-difluorobenzenesulfonamide]
17 | 1 nM |  |  | COc1ncc(-c2cc(OC3CCOC(C)(C)C3)c3nc(N)nc(C)c3c2)cc1NS(=O)(=O)c1ccc(F)cc1F (stereo not shown) [Example 19, N-(5-(2-amino-8-((2,2-dimethyltetrahydro-2H-pyran-4-yl)oxy)-4-methylquinazolin-6-yl)-2-methoxypyridin-3-yl)-2,4-difluorobenzenesulfonamide]
18 | 1.3 nM |  |  | COc1ncc(-c2cc(OCC3CCCO3)c3nc(N)nc(C)c3c2)cc1NS(=O)(=O)c1ccc(F)cc1F (stereo not shown) [Example 20, N-(5-(2-amino-4-methyl-8-((tetrahydrofuran-2-yl)methoxy)quinazolin-6-yl)-2-methoxypyridin-3-yl)-2,4-difluorobenzenesulfonamide]
19 | 1 nM |  |  | COc1ncc(-c2cc(OCC3CCOC3)c3nc(N)nc(C)c3c2)cc1NS(=O)(=O)c1ccc(F)cc1F (stereo not shown) [Example 21, N-(5-(2-amino-4-methyl-8-((tetrahydrofuran-3-yl)methoxy)quinazolin-6-yl)-2-methoxypyridin-3-yl)-2,4-difluorobenzenesulfonamide]
20 | 1.1 nM |  |  | COc1ncc(-c2cc(OC3CCCC3)c3nc(N)nc(C)c3c2)cc1NS(=O)(=O)c1ccc(F)cc1F [Example 23, N-(5-(2-amino-8-(cyclopentyloxy)-4-methylquinazolin-6-yl)-2-methoxypyridin-3-yl)-2,4-difluorobenzenesulfonamide]
21 | 1.8 nM |  |  | CNc1nc(C)c2cc(-c3cnc(OC)c(NS(=O)(=O)c4ccc(F)cc4F)c3)cc(O[C@H]3CCOC3)c2n1 [Example 35, (S)—N-(2-methoxy-5-(4-methyl-2-(methylamino)-8-((tetrahydrofuran-3-yl)oxy)quinazolin-6-yl)pyridin-3-yl)-2,4-difluorobenzenesulfonamide]
